Experimental data from US8067395B2, “Inhibitors of tyrosine kinases and uses thereof” (Pharmacyclics, Inc., priority 2006, dated 2011).

Molecular target: Btk (Homo sapiens, UniProt Q06187)
Assay: Btk TR-FRET kinase inhibition assay
Assay type: biochemical
Details: pH 7.4, ATP at the Km for the kinase, 1 μM peptide substrate, [Btk]total=0.5 nM, read-out: Btk-TRFRET (Ki)
Protocol: Suitable in vitro assays for measuring kinase activity and the inhibition thereof by compounds are known (e.g., see Kuzmic et al. Anal. Biochem. 2000, 286, 45-50).
The following protocol represents an assay for determination of inhibition of kinases under physiological conditions (pH 7.4). Kinase activity was determined using a time-resolved fluorescence resonance energy transfer (TR-FRET) methodology. Measurements were performed in a reaction volume of 50 μL using 96-well assay plates. Kinase enzyme, inhibitor, ATP (at the Km for the kinase), and 1 μM peptide substrate (Biotin-AVLESEEELYSSARQ-NH2) were incubated in a reaction buffer composed of 20 mM Tris, 50 mM NaCl, MgCl2 (5-25 mM depending on the kinase), 1 mM DTT, 0.1 mM EDTA, 0.01% bovine serum albumin, 0.005% Tween-20, and 10% DMSO at pH 7.4 for one hour. The reaction was quenched by the addition of 1.2 equivalents of EDTA (relative to Mg^2+) in 25 μL of 1× Lance buffer (Perkin-Elmer). Streptavidin-APC (Perkin-Elmer) and Eu-labeled p-Tyr100 antibody (Perkin-Elmer) in 1× Lance buffer were added in a 25 μL volume to give final concentrations of 100 nM and 2.5 nM, respectively, and the mixture was allowed to incubate for one hour. The TR-FRET signal was measured on a multimode plate reader with an excitation wavelength of 330 nm and detection wavelengths of 615 nm and 665 nm. Activity was determined by the ratio of the fluorescence at 665 nm to that at 615 nm. For each compound, enzyme activity was measured at various concentrations of compound. Negative control reactions were performed in the absence of inhibitor in replicates of six, and two no-enzyme controls were used to determine baseline fluorescence levels. Inhibition constants were obtained using the program BatchKi (Kuzmic et al. Anal. Biochem. 2000, 286, 45-50). IC50s were obtained according to this equation: IC50={Ki(app)/(1+[ATP]/Km^ATP)}+[E]total/2; for all kinases, [ATP]=Km^ATP, [Btk]total=0.5 nM and [Lck]total=6 nM.

Sequence of Btk (Q06187 whole entry): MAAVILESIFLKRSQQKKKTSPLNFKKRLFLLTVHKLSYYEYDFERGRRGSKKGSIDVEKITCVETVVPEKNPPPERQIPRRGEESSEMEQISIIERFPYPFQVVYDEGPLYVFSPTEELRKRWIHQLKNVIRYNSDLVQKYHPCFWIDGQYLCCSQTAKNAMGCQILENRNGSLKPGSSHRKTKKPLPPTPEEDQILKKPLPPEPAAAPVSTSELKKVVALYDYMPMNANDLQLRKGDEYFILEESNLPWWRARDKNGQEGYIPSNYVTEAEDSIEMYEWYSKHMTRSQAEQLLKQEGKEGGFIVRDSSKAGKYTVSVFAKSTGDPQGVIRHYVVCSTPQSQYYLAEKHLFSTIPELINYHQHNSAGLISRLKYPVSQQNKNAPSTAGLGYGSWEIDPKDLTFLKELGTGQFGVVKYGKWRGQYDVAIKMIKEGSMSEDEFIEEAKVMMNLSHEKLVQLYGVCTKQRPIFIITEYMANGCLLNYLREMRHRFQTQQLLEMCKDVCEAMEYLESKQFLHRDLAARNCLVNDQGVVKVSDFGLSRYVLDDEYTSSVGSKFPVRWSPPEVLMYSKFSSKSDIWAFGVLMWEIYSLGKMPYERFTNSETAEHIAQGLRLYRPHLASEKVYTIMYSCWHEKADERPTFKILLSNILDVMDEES

| Structure (SMILES) | Ki [nM] |
| --- | --- |
| Cc1cc(F)ccc1Nc1nc2ccc3c(C)c(C=CCN4CCP(=O)(c5ccc(F)cc5)CC4)[nH]c(=O)c3c2n1C [Compound 10, 2-(4-fluoro-2-methylphenylamino)-1,6-dimethyl-7-[3-(4-oxo-4-(4-fluorophenyl)-4λ^5-[1,4]azaphosphinan-1-yl)-propenyl]-1,8-dihydro-imidazo[4,5-h]isoquinolin-9-one] | < 100 |
| COc1ccc(P2(=O)CCN(CC=Cc3[nH]c(=O)c4c(ccc5nc(Nc6cc(F)ccc6C)n(C)c54)c3C)CC2)cc1 [Compound 11, 2-(3-fluoro-6-methylphenylamino)-1,6-dimethyl-7-[3-(4-oxo-4-(4-methoxyphenyl)-4λ^5-[1,4]azaphosphinan-1-yl)-propenyl]-1,8-dihydro-imidazo[4,5-h]isoquinolin-9-one] | < 100 |
| Cc1cc(F)ccc1Nc1nc2ccc3c(C)c(/C=C/CN4CCP(=O)(CC5CC5)CC4)[nH]c(=O)c3c2n1C [Compound 13, 2-(4-fluoro-2-methylphenylamino)-1,6-dimethyl-7-{3-[4-(cyclopropylmethyl)-4-oxo-4λ^5-[1,4]azaphosphinan-1-yl]-propenyl}-1,8-dihydro-imidazo[4,5-h]isoquinolin-9-one] | < 100 |
| Cc1cc(F)ccc1Nc1nc2ccc3c(C)c(C=CCNC(=O)C4CCP(=O)(c5ccccc5)CC4)[nH]c(=O)c3c2n1C (stereo not drawn) [Compound 16, 2-(4-fluoro-2-methylphenylamino)-1,6-dimethyl-7-{3-[(1-oxo-1-trans-phenyl-1λ^5-phosphinan-4-yl)-carbonylamino]propenyl}-1,8-dihydro-imidazo[4,5-h]isoquinolin-9-one] | < 100 |
| Cc1cc(F)ccc1Nc1nc2ccc3c(C)c(/C=C/CNC(=O)[C@H]4CC[P@@](=O)(c5ccccc5)CC4)[nH]c(=O)c3c2n1C [Compound 17, 2-(4-fluoro-2-methyl-phenylamino)-1,6-dimethyl-7-{3-[(1-oxo-1-cis-phenyl-1λ^5-phosphinan-4-yl)-carbonylamino]propenyl}-1,8-dihydro-imidazo[4,5-h]isoquinolin-9-one] | < 100 |
| Cc1c(C=CCN2CCN(c3ccccc3)CC2)[nH]c(=O)c2c1ccc1nc(Nc3c(Cl)cccc3Cl)n(C)c12 [Compound 18, 2-(2,6-dichlorophenylamino)-1,6-dimethyl-7-[3-(N-phenylpiperazin-1-yl)-propenyl]-1,8-dihydro-imidazo[4,5-h]isoquinolin-9-one] | < 100 |
| Cc1cc(F)ccc1Nc1nc2ccc3c(C)c(C=CCN4CCN(c5ccc(Cl)cc5)CC4)[nH]c(=O)c3c2n1C [Compound 20, 2-(4-fluoro-2-methylphenylamino)-1,6-dimethyl-7-[3-(N-(4-chlorophenyl)-piperazin-1-yl)-propenyl]-1,8-dihydro-imidazo[4,5-h]isoquinolin-9-one] | < 100 |
| CC(=O)N1CCN(CC=Cc2[nH]c(=O)c3c(ccc4nc(Nc5ccc(F)cc5C)n(C)c43)c2C)CC1 [Compound 21, 2-(4-fluoro-2-methylphenylamino)-1,6-dimethyl-7-[3-(N-methylcarbonylpiperazin-1-yl)-propenyl]-1,8-dihydro-imidazo[4,5-h]isoquinolin-9-one] | < 100 |
| Cc1cc(F)ccc1Nc1nc2ccc3c(C)c(C=CCN4CCN(c5ccncc5)CC4)[nH]c(=O)c3c2n1C [Compound 23, 2-(4-fluoro-2-methylphenylamino)-1,6-dimethyl-7-[3-(N-(pyridin-4-yl)-piperazin-1-yl)-propenyl]-1,8-dihydro-imidazo[4,5-h]isoquinolin-9-one] | < 100 |
| Cc1cc(F)ccc1Nc1nc2ccc3c(C)c(C=CCN4CCN(c5ccccn5)CC4)[nH]c(=O)c3c2n1C [Compound 26, 2-(4-fluoro-2-methylphenylamino)-1,6-dimethyl-7-[3-(N-(pyridin-2-yl)-piperazin-1-yl)-propenyl]-1,8-dihydro-imidazo[4,5-h]isoquinolin-9-one] | < 100 |
| Cc1cc(F)ccc1Nc1nc2ccc3c(C)c(C=CCN4CCN(c5ncccn5)CC4)[nH]c(=O)c3c2n1C [Compound 27, 2-(4-fluoro-2-methylphenylamino)-1,6-dimethyl-7-[3-(N-(pyrimidin-2-yl)-piperazin-1-yl)-propenyl]-1,8-dihydro-imidazo[4,5-h]isoquinolin-9-one] | < 100 |
| Cc1cc(F)ccc1Nc1nc2ccc3c(C)c(C=CCN4CCN(S(=O)(=O)c5ccccc5)CC4)[nH]c(=O)c3c2n1C [Compound 29, 2-(4-fluoro-2-methylphenylamino)-1,6-dimethyl-7-[3-(N-phenylsulfonylpiperazin-1-yl)-propenyl]-1,8-dihydro-imidazo[4,5-h]isoquinolin-9-one] | < 100 |
| Cc1cc(F)ccc1Nc1nc2ccc3c(C)c(/C=C/CN4CCN(c5ccc(F)cc5)CC4)[nH]c(=O)c3c2n1C [Compound 30, 2-(4-fluoro-2-methylphenylamino)-1,6-dimethyl-7-[3-(N-(4-fluorophenyl)-piperazin-1-yl)-propenyl]-1,8-dihydro-imidazo[4,5-h]isoquinolin-9-one] | < 100 |

Second part, the compound after the results:

| Ki [nM] | Structure (SMILES) |
| --- | --- |
| < 100 | Cc1cc(F)ccc1Nc1nc2ccc3c(C)c(/C=C/CN4CCP(=O)(Cc5ccc(F)cc5)CC4)[nH]c(=O)c3c2n1C [Compound 12, 2-(4-fluoro-2-methylphenylamino)-1,6-dimethyl-7-{3-[4-(4-fluorophenylmethyl)-4-oxo-4λ^5-[1,4]azaphosphinan-1-yl]-propenyl}-1,8-dihydro-imidazo[4,5-h]isoquinolin-9-one] |
| < 100 | Cc1cc(F)ccc1Nc1nc2ccc3c(C)c(/C=C/CN4CCP(=O)(C5CC5)CC4)[nH]c(=O)c3c2n1C [Compound 14, 2-(4-fluoro-2-methylphenylamino)-1,6-dimethyl-7-{3-[4-(cyclopropyl)-4-oxo-4λ^5-[1,4]azaphosphinan-1-yl]-propenyl}-1,8-dihydro-imidazo[4,5-h]isoquinolin-9-one] |
| < 100 | Cc1cc(F)ccc1Nc1nc2ccc3c(C)c(C=CCN4CCN(c5ccccc5)CC4)[nH]c(=O)c3c2n1C [Compound 19, 2-(4-fluoro-2-methylphenylamino)-1,6-dimethyl-7-[3-(N-phenylpiperazin-1-yl)-propenyl]-1,8-dihydro-imidazo[4,5-h]isoquinolin-9-one] |
| < 100 | Cc1cc(F)ccc1Nc1nc2ccc3c(C)c(C=CCN4CCN(C(=O)c5ccccc5)CC4)[nH]c(=O)c3c2n1C [Compound 22, 2-(4-fluoro-2-methylphenylamino)-1,6-dimethyl-7-[3-(N-phenylcarbonylpiperazin-1-yl)-propenyl]-1,8-dihydro-imidazo[4,5-h]isoquinolin-9-one] |
| < 100 | Cc1cc(F)ccc1Nc1nc2ccc3c(C)c(/C=C/CN4CCN(S(C)(=O)=O)CC4)[nH]c(=O)c3c2n1C [Compound 24, 2-(4-fluoro-2-methylphenylamino)-1,6-dimethyl-7-[3-(N-methylsulfonylpiperazin-1-yl)-propenyl]-1,8-dihydro-imidazo[4,5-h]isoquinolin-9-one] |
| < 100 | Cc1cc(F)ccc1Nc1nc2ccc3c(C)c(C=CCN4CCN(Cc5c(Cl)cccc5Cl)CC4)[nH]c(=O)c3c2n1C [Compound 28, 2-(4-fluoro-2-methylphenylamino)-1,6-dimethyl-7-[3-(N-(2,6-dichlorophenylmethyl)-piperazin-1-yl)-propenyl]-1,8-dihydro-imidazo[4,5-h]isoquinolin-9-one] |
